Assay results published in patent US7097988B1 (ADVANCED RESEARCH AND TECHNOLOGY INSTITUTE, dated 2006).

Legend:
[1] = biological target: T1, mu opioid receptor / voltage-activated calcium channel (Rattus norvegicus, UniProt P33535, V245I); test: Barium currents in Xenopus oocytes coexpressing voltage-activated calcium channel and mu opioid receptor; format: cell-based; conditions: 1 μM DAMGO for 5 min, entire activation voltage range
T1 construct: one cDNA clone contained an open reading frame of 1194 bp, encoding a protein of 398 amino acids; expressed in transfected cells; host or cells: Xenopus oocytes (plasmid microinjection)
T1 sequence (P33535 whole entry V245I): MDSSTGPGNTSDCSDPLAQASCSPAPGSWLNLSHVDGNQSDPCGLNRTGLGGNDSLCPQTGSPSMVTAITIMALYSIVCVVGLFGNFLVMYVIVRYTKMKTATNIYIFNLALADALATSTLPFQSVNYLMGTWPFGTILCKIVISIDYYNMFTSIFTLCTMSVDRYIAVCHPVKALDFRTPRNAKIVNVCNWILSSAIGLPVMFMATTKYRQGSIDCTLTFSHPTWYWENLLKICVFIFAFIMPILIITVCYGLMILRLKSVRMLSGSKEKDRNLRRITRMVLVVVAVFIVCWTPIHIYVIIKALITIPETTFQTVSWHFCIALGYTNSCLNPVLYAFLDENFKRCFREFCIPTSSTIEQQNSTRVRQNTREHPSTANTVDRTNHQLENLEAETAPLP

[2] = biological target: T2, rat μ opioid receptor (inhibition of adenylyl cyclase) (Rattus norvegicus, UniProt P33535, V245I)
T2 sequence (P33535 whole entry V245I): as above

[3] = biological target: T3, human μ opioid receptor coupled to G protein-activated K+ channel (Homo sapiens, UniProt P35372); format: cell-based
T3 construct: Messenger RNAs encoding both proteins (Chen and Yu, 1994) were generated by in vitro transcription and injected into Xenopus oocytes; expressed in transfected cells; host or cells: Xenopus laevis oocytes (mRNA injection)
T3 sequence (P35372 whole entry): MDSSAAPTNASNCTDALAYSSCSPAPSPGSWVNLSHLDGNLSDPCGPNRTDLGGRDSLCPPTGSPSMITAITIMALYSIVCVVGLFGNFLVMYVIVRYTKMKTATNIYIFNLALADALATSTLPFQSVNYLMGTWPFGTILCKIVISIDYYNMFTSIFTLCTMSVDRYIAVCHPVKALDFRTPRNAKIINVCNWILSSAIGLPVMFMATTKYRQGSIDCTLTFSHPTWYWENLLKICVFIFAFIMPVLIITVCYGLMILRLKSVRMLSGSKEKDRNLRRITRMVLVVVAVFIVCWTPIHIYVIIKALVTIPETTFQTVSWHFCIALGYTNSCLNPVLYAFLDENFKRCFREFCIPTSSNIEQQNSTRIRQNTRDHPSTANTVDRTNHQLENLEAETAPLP

cloned rat μ receptor = cloned rat μ receptor (Rattus norvegicus, UniProt P33535, V245I); conditions: previously reported; cited from earlier work
Sequence of cloned rat μ receptor (P33535 whole entry V245I): as the sequence (P33535 whole entry V245I) above

mu opioid receptor = biological target: T4, mu opioid receptor (Rattus norvegicus, UniProt P33535, V245I); format: biochemical; conditions: 10 μM DAMGO
T4 construct: expressed in transfected cells
T4 sequence (P33535 whole entry V245I): as above

[4] = biological target: T2, rat μ opioid receptor (inhibition of adenylyl cyclase); test: Cyclic AMP assay in transfected CHO cells, naive or chronically morphine-treated; conditions: for DAMGO/control (forskolin + DAMGO vs forskolin only cAMP): 1 μM DAMGO, 2 μM forskolin; for Intracellular cAMP level, Forskolin + DAMGO: forskolin 2 μM, DAMGO 1 μM
[5] = biological target: T5, μ-opioid receptor encoded by MOR-1 (inhibition of adenylyl cyclase) (Rattus norvegicus, UniProt P33535, V245I); test: Forskolin-stimulated cAMP levels in COS-7 cells expressing MOR-1; format: cell-based; conditions: 100 nM DAGO, 10 μM forskolin, transfected cells, p<0.05
T5 construct: A 1.4-kilobase HindIII fragment encompassing the open reading frame from the cDNA encoding MOR-1 was cloned; expressed in transfected cells; host or cells: COS-7
T5 sequence (P33535 whole entry V245I, the tested form may be a part): as the sequence (P33535 whole entry V245I) above

human μ opioid receptor = human μ opioid receptor (Homo sapiens, UniProt P35372)
Sequence of human μ opioid receptor (P35372 whole entry): as the sequence (P35372 whole entry) above

rat μ opioid receptor = biological target: T6, rat μ opioid receptor (Rattus norvegicus, UniProt P33535, V245I); test: Saturation binding of [3H]DAMGO, membranes of CHO cells stably expressing rat μ opioid receptor (Example VII)
T6 construct: A plasmid containing a 1.4 kb cDNA for the rat μ opioid receptor in a mammalian expression vector pRc/CMV has been described; expressed in transfected cells
T6 sequence (P33535 whole entry V245I): as the sequence (P33535 whole entry V245I) above

[6] = biological target: T7, novel member of the opioid receptor gene family (SEQ ID NO: 17) (Rattus norvegicus, UniProt P35370); format: cell-based
T7 construct: mRNA of this clone was synthesized by in vitro transcription and coinjected into Xenopus oocytes; expressed in transfected cells; host or cells: Xenopus oocytes (mRNA injection)
T7 sequence (P35370 whole entry): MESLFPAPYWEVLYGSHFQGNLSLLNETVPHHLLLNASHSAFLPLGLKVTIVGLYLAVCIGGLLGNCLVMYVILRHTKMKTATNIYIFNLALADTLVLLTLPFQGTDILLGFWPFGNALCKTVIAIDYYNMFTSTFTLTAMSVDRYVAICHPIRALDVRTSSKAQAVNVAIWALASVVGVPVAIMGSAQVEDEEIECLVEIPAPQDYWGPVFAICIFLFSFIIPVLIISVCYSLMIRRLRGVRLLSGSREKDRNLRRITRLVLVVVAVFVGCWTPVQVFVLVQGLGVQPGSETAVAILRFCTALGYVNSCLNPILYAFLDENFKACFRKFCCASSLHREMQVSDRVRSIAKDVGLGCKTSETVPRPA

cloned human μ receptor = cloned human μ receptor (Homo sapiens, UniProt P35372); test: Saturation binding of [3H]DAMGO, COS-7 membranes expressing cloned human μ receptor (Example XII); set-up: the cDNA containing the open reading frame of the receptor was cloned downstream of the human cytomegalovirus promoter in the mammalian expression vector pcDNA3; expressed in transfected cells; host or cells: COS-7 (transient)
Sequence of cloned human μ receptor (P35372 whole entry): as the sequence (P35372 whole entry) above

[7] = biological target: T8, rat μ opioid receptor coupled to G protein-activated K+ channel (Rattus norvegicus, UniProt P33535, V245I); format: cell-based
T8 construct: A cDNA clone, MOR-1, containing the protein coding region of a rat μ opioid receptor has been described; expressed in transfected cells; host or cells: Xenopus oocytes (mRNA injection)
T8 sequence (P33535 whole entry V245I): as the sequence (P33535 whole entry V245I) above

[8] = cells treated with 1 μM morphine for 24 hours

Q: Which “reduction in barium currents through the calcium channel” value [1] does the source give for C[C@@H](NC(=O)[C@@H](N)Cc1ccc(O)cc1)C(=O)NCC(=O)N(C)[C@@H](Cc1ccccc1)C(=O)NCCO [DAMGO, [D-Ala^2, N-Me-Phe^4, Gly-ol^5]-enkephalin] here?
A: over 80%

Q: And the inhibition [2]?
A: ~60%

Q: And the “membrane current upon receptor activation (in words)” value [3]?
A: an inward current was observed

Q: What about the Bmax (cloned rat μ receptor) of the same molecule?
A: 444 fmol/mg protein

Q: What about the “increase of GTPase activity” value (mu opioid receptor) of the same molecule?
A: 30%

Q: What about the “effect on intracellular cAMP level in non-transfected parental CHO cells” value [4] of the same molecule?
A: had no effect

Q: And the “DAMGO/control (forskolin + DAMGO vs forskolin only cAMP)” value [4, 8]?
A: 42.4%

Q: What about the “Intracellular cAMP level, Forskolin + DAMGO” value [4, 8] of the same molecule?
A: 38.9 ± 1.4 fmol/1 × 10^3 cells

Q: And the “DAMGO/control (forskolin + DAMGO vs forskolin only cAMP)” value ([4]; naive cells)?
A: 71.9%

Q: And the “Intracellular cAMP level, Forskolin + DAMGO” value ([4]; naive cells)?
A: 25.6 ± 0.3 fmol/1 × 10^3 cells

Q: And the “reduction of cAMP levels from control” value [5]?
A: 18.1±2.5%

Q: What about the Bmax (human μ opioid receptor) of the same molecule?
A: 381±25 fmol/mg of membrane protein

Q: What about the Bmax (rat μ opioid receptor) of the same molecule?
A: ~630 fmol/mg membrane protein

Q: And the “induction of potassium conductance (in words)” value [6]?
A: no potassium conductance was induced

Q: What about the Bmax (cloned human μ receptor) of the same molecule?
A: 232 fmol/mg

Q: What about the “membrane current upon DAMGO exposure (in words)” value [7] of the same molecule?
A: produced an inward membrane current
